The text below walks through data of ChEMBL document CHEMBL2074549, “Regulation of 2-acetylaminofluorene-and 3-methylcholanthrene--mediated induction of multidrug resistance and cytochrome P450IA gene family expression in primary hepatocyte cultures and rat liver” (Mol Carcinog, 1991).

For series [1], the target named is Multidrug resistance protein 1a (Rattus norvegicus) (UniProt Q6PSM0). The experiment in a line: TP_TRANSPORTER: Western blot, primary hepatocytes. It counts as functional, cell-based. The following applies: Hepatocyte. (In western blotting, separated proteins are transferred to a membrane and probed.)
Series [2] has as its target ATP-dependent translocase ABCB1 (Rattus norvegicus, UniProt P43245). In words: TP_TRANSPORTER: Northern blot from primary hepatocytes. The series is classed as functional, Hepatocyte.

Sequence of Multidrug resistance protein 1a (Rattus norvegicus) (Q6PSM0 as listed by the source): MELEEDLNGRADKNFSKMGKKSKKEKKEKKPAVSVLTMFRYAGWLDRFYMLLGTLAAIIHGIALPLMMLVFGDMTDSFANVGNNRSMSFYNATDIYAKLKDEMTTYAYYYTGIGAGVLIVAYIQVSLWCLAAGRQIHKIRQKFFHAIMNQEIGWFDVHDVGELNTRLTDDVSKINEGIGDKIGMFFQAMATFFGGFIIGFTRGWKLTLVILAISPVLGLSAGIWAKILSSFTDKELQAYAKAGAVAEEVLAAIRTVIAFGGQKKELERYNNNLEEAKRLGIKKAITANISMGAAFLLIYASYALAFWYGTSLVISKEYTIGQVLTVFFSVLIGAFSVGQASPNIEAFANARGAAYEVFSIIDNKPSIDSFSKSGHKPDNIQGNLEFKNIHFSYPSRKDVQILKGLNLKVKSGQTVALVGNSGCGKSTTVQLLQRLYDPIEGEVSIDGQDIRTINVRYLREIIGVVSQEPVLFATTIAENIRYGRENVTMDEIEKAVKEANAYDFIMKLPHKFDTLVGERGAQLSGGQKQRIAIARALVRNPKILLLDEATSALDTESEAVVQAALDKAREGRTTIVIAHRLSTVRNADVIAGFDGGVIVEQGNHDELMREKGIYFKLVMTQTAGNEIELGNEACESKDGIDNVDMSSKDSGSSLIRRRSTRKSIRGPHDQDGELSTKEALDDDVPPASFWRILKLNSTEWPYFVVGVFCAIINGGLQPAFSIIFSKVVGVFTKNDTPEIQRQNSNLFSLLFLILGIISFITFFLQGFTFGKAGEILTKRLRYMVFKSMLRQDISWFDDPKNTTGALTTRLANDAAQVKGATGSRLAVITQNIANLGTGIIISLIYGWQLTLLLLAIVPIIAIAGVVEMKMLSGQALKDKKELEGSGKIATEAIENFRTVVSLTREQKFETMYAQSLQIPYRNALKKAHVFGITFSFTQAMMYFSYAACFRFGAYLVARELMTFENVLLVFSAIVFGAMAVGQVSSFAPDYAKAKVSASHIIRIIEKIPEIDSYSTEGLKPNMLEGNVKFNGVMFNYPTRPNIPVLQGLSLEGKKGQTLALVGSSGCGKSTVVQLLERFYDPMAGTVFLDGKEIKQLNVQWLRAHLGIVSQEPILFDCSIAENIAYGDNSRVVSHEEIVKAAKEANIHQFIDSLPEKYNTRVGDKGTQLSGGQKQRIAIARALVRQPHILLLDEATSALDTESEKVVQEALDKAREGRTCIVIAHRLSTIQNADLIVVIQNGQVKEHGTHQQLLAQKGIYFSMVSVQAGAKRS
Sequence of ATP-dependent translocase ABCB1 (P43245 whole entry): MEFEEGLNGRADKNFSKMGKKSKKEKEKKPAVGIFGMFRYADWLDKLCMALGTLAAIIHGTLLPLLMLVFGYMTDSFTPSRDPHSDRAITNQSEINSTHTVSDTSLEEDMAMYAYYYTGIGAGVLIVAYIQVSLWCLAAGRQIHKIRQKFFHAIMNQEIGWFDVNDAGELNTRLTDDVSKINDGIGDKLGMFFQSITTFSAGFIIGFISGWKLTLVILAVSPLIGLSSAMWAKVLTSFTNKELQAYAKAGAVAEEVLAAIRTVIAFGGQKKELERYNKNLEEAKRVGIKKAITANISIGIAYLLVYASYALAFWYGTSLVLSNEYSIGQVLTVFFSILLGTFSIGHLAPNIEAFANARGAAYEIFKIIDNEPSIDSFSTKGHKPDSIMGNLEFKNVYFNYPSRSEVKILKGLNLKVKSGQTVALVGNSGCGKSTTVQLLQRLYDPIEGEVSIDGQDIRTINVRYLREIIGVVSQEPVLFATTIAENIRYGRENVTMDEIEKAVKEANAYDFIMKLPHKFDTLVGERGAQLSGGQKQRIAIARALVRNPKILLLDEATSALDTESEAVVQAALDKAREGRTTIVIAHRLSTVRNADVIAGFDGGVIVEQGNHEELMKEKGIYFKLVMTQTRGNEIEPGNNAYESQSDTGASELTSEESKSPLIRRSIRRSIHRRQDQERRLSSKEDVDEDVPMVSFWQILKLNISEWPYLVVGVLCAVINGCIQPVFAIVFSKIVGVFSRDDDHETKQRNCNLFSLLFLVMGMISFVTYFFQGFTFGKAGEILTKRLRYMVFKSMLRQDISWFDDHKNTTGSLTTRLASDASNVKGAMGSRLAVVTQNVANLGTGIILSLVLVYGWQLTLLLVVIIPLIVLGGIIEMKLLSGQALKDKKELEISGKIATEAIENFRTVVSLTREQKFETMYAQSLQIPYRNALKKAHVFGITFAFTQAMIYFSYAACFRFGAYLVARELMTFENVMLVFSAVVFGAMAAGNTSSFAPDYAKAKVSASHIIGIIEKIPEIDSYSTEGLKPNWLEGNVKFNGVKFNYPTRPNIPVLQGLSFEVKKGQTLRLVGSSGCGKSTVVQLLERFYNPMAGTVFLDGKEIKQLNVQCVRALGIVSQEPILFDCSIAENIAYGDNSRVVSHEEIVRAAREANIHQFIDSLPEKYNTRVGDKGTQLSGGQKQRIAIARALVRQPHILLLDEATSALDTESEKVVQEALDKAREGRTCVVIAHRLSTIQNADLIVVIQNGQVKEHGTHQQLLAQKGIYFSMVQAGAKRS

Regarding `CC(=O)Nc1ccc2c(c1)Cc1ccccc1-2`, the Activity entry in series [1] was “inducer [+]”.
Consider `Cc1ccc2cc3c(ccc4ccccc43)c3c2c1CC3` [3-METHYLCHOLANTHRENE], for which the Activity entry in series [2] and in series [1] was “inducer [+]” each time.
